Series [1] is described as follows: Solubility of SHR0302 in water at varying pH values in a phosphate buffer. The conditions noted are these: phosphate buffer system; FIG. 1. The class given is physicochemical. Here is the method:
The solubility of SHR0302 was determined in water at varying pH values in a phosphate buffer. FIG. 1 illustrates a plot of SHR0302 (also known as ARQ-250) concentration in μg/mL in water as a function of pH in a phosphate buffer system.

A short description of series [2]: Solubility of SHR0302 in water at varying pH values in phosphate and citrate buffer systems. The conditions noted are these: FIG. 2. It counts as physicochemical. How it is done: The solubility of SHR0302 was determined in water at varying pH values in various buffer systems. FIG. 2 illustrates a plot of SHR0302 concentration in μg/mL in water as a function of pH in two phosphate buffer systems and a citrate buffer system.

The target in another series is JAK1 (Homo sapiens, UniProt P23458). The conditions noted are these: cited from earlier work.

Consider one molecule from US12161643B2, “Stable formulations of SHR0302” (ARCUTIS BIOTHERAPEUTICS, INC., priority 2021, dated 2024).

JAK1, sequence (P23458 whole entry): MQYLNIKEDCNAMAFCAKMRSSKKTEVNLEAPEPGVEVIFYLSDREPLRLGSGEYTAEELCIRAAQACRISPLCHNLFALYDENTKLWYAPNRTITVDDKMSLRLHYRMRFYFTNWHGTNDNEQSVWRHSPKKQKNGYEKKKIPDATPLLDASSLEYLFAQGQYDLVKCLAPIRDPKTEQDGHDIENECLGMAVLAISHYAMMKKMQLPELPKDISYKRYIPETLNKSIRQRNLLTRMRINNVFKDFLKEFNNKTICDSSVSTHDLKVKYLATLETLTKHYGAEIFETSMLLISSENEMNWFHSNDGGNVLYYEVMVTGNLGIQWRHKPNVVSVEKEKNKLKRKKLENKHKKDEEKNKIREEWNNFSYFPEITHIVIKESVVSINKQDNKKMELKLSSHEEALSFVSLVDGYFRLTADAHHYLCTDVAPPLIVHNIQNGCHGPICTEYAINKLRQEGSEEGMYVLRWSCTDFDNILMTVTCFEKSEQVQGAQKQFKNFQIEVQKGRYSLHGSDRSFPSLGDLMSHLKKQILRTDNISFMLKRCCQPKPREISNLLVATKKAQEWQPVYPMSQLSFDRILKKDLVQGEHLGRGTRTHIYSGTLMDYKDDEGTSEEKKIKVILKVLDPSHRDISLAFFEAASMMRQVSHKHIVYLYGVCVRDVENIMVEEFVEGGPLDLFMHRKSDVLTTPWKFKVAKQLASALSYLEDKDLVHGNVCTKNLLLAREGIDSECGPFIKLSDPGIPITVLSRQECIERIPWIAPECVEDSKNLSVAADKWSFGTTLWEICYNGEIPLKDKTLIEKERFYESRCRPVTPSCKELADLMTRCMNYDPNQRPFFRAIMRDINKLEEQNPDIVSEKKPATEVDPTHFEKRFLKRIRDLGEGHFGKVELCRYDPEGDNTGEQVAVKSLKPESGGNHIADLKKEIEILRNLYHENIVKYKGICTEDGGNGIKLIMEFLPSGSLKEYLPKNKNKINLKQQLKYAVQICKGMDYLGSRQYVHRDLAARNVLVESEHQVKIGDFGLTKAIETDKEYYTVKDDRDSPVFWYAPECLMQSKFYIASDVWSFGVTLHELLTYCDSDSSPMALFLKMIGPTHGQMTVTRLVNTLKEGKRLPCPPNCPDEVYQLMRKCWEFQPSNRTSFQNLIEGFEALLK

With `COc1nsc(NC(=O)N2C[C@H]3C[C@H](N(C)c4ncnc5[nH]ccc45)C[C@H]3C2)n1` [SHR0302, (3aR,5S,6aS)—N-(3-methoxyl-1,2,4-thiadiazol-5-yl)-5-(methyl(7H-pyrrolo[2,3-d]pyrimidin-4-yl)amino)hexahydrocyclopenta[c]pyrrole-2(1H)-carboxamide], the “solubility in water as a function of pH” value in series [1] and in series [2] was “decreases as pH levels increase” each time. In addition, the “selectivity for JAK1 over JAK2” value on JAK1 (JAK1 over JAK2) is “high selectively for JAK1 over JAK2”. Besides, at JAK1, the “inhibition of JAK1” value is given as “potent”.
